# “And” between values parts separate entries of the source, which are not always exact repeats. Identical values can stand only once. Marks after values point to notes of the source that are not given here.
# System: male rats
# Experiment: 28-day repeated dose study, plasma metabolite profiling (GC-MS, LC-MS), male rats
# Type: in vivo, rat
# Description: Drinking water was also offered ad libitum.
structure (smiles),measurement,setting,value
"CC(C=O)Cc1ccc(C(C)(C)C)cc1 (centres unmarked) [Lysmeral, 2-Methyl-3(4-tert.-butylphenyl)-propanal]","3-Hydroxybutyrate, plasma, treatment ratio versus control",day 7,0.24* and 0.21*
same,"3-O-Methylsphingosine (d18:1), plasma, treatment ratio versus control",day 7,0.22
same,"5-O-Methylsphingosine (d18:1), plasma, treatment ratio versus control",day 7,0.19
same,"5-Oxoproline, plasma, treatment ratio versus control",day 7,0.65*
same,"Arginine, plasma, treatment ratio versus control",day 7,1.37*
same,"Campesterol, plasma, treatment ratio versus control",day 7,0.24*
same,"Ceramide (d18:1,C24:0), plasma, treatment ratio versus control",day 7,0.59*
same,"Ceramide (d18:1,C24:1), plasma, treatment ratio versus control",day 7,0.47*
same,"Cholesterol, plasma, treatment ratio versus control",day 7,0.3
same,"Choline plasmalogen No 03, plasma, treatment ratio versus control",day 7,0.51*
same,"Coenzyme Q9, plasma, treatment ratio versus control",day 7,0.21*
same,"Coenzyme Q10, plasma, treatment ratio versus control",day 7,0.33*
same,"Glutamate, plasma, treatment ratio versus control",day 7,0.72
same,"Glutamine, plasma, treatment ratio versus control",day 7,0.65*
same,"Histidine, plasma, treatment ratio versus control",day 7,1.21*
same,"Homovanillic acid (HVA), plasma, treatment ratio versus control",day 7,0.21*
same,"Isopalmitic acid (C16:0), plasma, treatment ratio versus control",day 7,0.46*
same,"Lignoceric acid (C24:0), plasma, treatment ratio versus control",day 7,0.36
same,"Linoleic acid (C18:cis[9,12]2), plasma, treatment ratio versus control",day 7,0.44*
same,"Lysine, plasma, treatment ratio versus control",day 7,6.14*
same,"Myristic acid (C14:0), plasma, treatment ratio versus control",day 7,0.54
same,"Oleic acid (C18:cis[9]1), plasma, treatment ratio versus control",day 7,0.87
same,"Palmitic acid (C16:0), plasma, treatment ratio versus control",day 7,0.42*
same,"Palmitoleic acid (C16:cis[9]1), plasma, treatment ratio versus control",day 7,0.66
same,"Phosphatidylcholine (C16:0,C18:2), plasma, treatment ratio versus control",day 7,0.89*
same,"Phosphatidylcholine (C18:1,C18:2), plasma, treatment ratio versus control",day 7,0.74*
same,"Serine, plasma, treatment ratio versus control",day 7,1.36*
same,"Sphingomyelin (d18:1,C16:0), plasma, treatment ratio versus control",day 7,0.84*
same,"Sphingomyelin (d18:1,C24:0), plasma, treatment ratio versus control",day 7,0.52*
same,"Sphingomyelin (d18:2,C16:0), plasma, treatment ratio versus control",day 7,0.58*
same,"Stearic acid (C18:0), plasma, treatment ratio versus control",day 7,0.34*
same,"TAG (C16:0,C16:1), plasma, treatment ratio versus control",day 7,0.47
same,"Threonine, plasma, treatment ratio versus control",day 7,1.46*
same,"alpha-Tocopherol, plasma, treatment ratio versus control",day 7,0.52*
same,"beta-Sitosterol, plasma, treatment ratio versus control",day 7,0.43*
same,"erythro-Sphingosine, plasma, treatment ratio versus control",day 7,0.21
same,"threo-Sphingosine, plasma, treatment ratio versus control",day 7,0.25
same,"Lysophosphatidylcholine (C20:4), plasma, treatment ratio versus control","day 7, first listing in Table 3",0.87*
same,"Lysophosphatidylcholine (C20:4), plasma, treatment ratio versus control","day 7, second listing in Table 3",0.67*
same,"3-Hydroxybutyrate, plasma, treatment ratio versus control",day 14,0.29* and 0.2*
same,"3-O-Methylsphingosine (d18:1), plasma, treatment ratio versus control",day 14,0.45*
same,"5-O-Methylsphingosine (d18:1), plasma, treatment ratio versus control",day 14,0.48*
same,"Arginine, plasma, treatment ratio versus control",day 14,1.59*
same,"Campesterol, plasma, treatment ratio versus control",day 14,0.43*
same,"Ceramide (d18:1,C24:0), plasma, treatment ratio versus control",day 14,0.59*
same,"Ceramide (d18:1,C24:1), plasma, treatment ratio versus control",day 14,0.38*
same,"Cholesterol, plasma, treatment ratio versus control",day 14,0.47*
same,"Choline plasmalogen No 03, plasma, treatment ratio versus control",day 14,0.66*
same,"Coenzyme Q9, plasma, treatment ratio versus control",day 14,0.27*
same,"Coenzyme Q10, plasma, treatment ratio versus control",day 14,0.24*
same,"Dodecanol, plasma, treatment ratio versus control",day 14,0.75*
same,"Glutamate, plasma, treatment ratio versus control",day 14,0.93
same,"Glutamine, plasma, treatment ratio versus control",day 14,0.8
same,"Histidine, plasma, treatment ratio versus control",day 14,1.37*
same,"Homovanillic acid (HVA), plasma, treatment ratio versus control",day 14,0.47*
same,"Isopalmitic acid (C16:0), plasma, treatment ratio versus control",day 14,0.49*
same,"Lignoceric acid (C24:0), plasma, treatment ratio versus control",day 14,0.52*
same,"Linoleic acid (C18:cis[9,12]2), plasma, treatment ratio versus control",day 14,0.57*
same,"Lysine, plasma, treatment ratio versus control",day 14,6.55*
same,"Myristic acid (C14:0), plasma, treatment ratio versus control",day 14,0.59*
same,"Oleic acid (C18:cis[9]1), plasma, treatment ratio versus control",day 14,1.01
same,"Palmitic acid (C16:0), plasma, treatment ratio versus control",day 14,0.56*
same,"Palmitoleic acid (C16:cis[9]1), plasma, treatment ratio versus control",day 14,0.55*
same,"Phosphatidylcholine (C16:0,C18:2), plasma, treatment ratio versus control",day 14,0.93*
same,"Phosphatidylcholine (C18:1,C18:2), plasma, treatment ratio versus control",day 14,0.79*
same,"Serine, plasma, treatment ratio versus control",day 14,1.54*
same,"Sphingomyelin (d18:1,C16:0), plasma, treatment ratio versus control",day 14,0.88*
same,"Sphingomyelin (d18:1,C24:0), plasma, treatment ratio versus control",day 14,0.62*
same,"Sphingomyelin (d18:2,C16:0), plasma, treatment ratio versus control",day 14,0.53*
same,"Stearic acid (C18:0), plasma, treatment ratio versus control",day 14,0.51*
same,"TAG (C16:0,C16:1), plasma, treatment ratio versus control",day 14,0.67*
same,"Threonine, plasma, treatment ratio versus control",day 14,1.74*
same,"alpha-Tocopherol, plasma, treatment ratio versus control",day 14,0.56*
same,"beta-Sitosterol, plasma, treatment ratio versus control",day 14,0.57*
same,"erythro-Sphingosine, plasma, treatment ratio versus control",day 14,0.51*
same,"threo-Sphingosine, plasma, treatment ratio versus control",day 14,0.5*
same,"Lysophosphatidylcholine (C20:4), plasma, treatment ratio versus control","day 14, first listing in Table 3",0.95*
same,"Lysophosphatidylcholine (C20:4), plasma, treatment ratio versus control","day 14, second listing in Table 3",0.61*
same,"3-Hydroxybutyrate, plasma, treatment ratio versus control",day 28,0.52* and 0.49*
same,"3-O-Methylsphingosine (d18:1), plasma, treatment ratio versus control",day 28,0.48*
same,"5-O-Methylsphingosine (d18:1), plasma, treatment ratio versus control",day 28,0.48*
same,"5-Oxoproline, plasma, treatment ratio versus control",day 28,0.74*
same,"Arginine, plasma, treatment ratio versus control",day 28,1.76*
same,"Campesterol, plasma, treatment ratio versus control",day 28,0.35*
same,"Ceramide (d18:1,C24:0), plasma, treatment ratio versus control",day 28,0.44*
same,"Ceramide (d18:1,C24:1), plasma, treatment ratio versus control",day 28,0.38*
same,"Cholesterol, plasma, treatment ratio versus control",day 28,0.49*
same,"Choline plasmalogen No 03, plasma, treatment ratio versus control",day 28,0.6*
same,"Coenzyme Q9, plasma, treatment ratio versus control",day 28,0.31*
same,"Coenzyme Q10, plasma, treatment ratio versus control",day 28,0.37*
same,"Glutamate, plasma, treatment ratio versus control",day 28,0.82*
same,"Glutamine, plasma, treatment ratio versus control",day 28,0.81*
same,"Histidine, plasma, treatment ratio versus control",day 28,1.56*
same,"Homovanillic acid (HVA), plasma, treatment ratio versus control",day 28,0.26*
same,"Isopalmitic acid (C16:0), plasma, treatment ratio versus control",day 28,0.34*
same,"Lignoceric acid (C24:0), plasma, treatment ratio versus control",day 28,0.6*
same,"Linoleic acid (C18:cis[9,12]2), plasma, treatment ratio versus control",day 28,0.38*
same,"Lysine, plasma, treatment ratio versus control",day 28,8.13*
same,"Myristic acid (C14:0), plasma, treatment ratio versus control",day 28,0.53*
same,"Oleic acid (C18:cis[9]1), plasma, treatment ratio versus control",day 28,0.81*
same,"Palmitic acid (C16:0), plasma, treatment ratio versus control",day 28,0.48*
same,"Palmitoleic acid (C16:cis[9]1), plasma, treatment ratio versus control",day 28,0.37*
same,"Phosphatidylcholine (C16:0,C18:2), plasma, treatment ratio versus control",day 28,0.92*
same,"Phosphatidylcholine (C18:1,C18:2), plasma, treatment ratio versus control",day 28,0.83*
same,"Serine, plasma, treatment ratio versus control",day 28,1.7*
same,"Sphingomyelin (d18:1,C16:0), plasma, treatment ratio versus control",day 28,0.79*
same,"Sphingomyelin (d18:1,C24:0), plasma, treatment ratio versus control",day 28,0.64*
same,"Sphingomyelin (d18:2,C16:0), plasma, treatment ratio versus control",day 28,0.55*
same,"Stearic acid (C18:0), plasma, treatment ratio versus control",day 28,0.55*
same,"TAG (C16:0,C16:1), plasma, treatment ratio versus control",day 28,0.66*
same,"Threonine, plasma, treatment ratio versus control",day 28,2.15*
same,"beta-Sitosterol, plasma, treatment ratio versus control",day 28,0.55*
same,"erythro-Sphingosine, plasma, treatment ratio versus control",day 28,0.51*
same,"threo-Sphingosine, plasma, treatment ratio versus control",day 28,0.51*
same,"Lysophosphatidylcholine (C20:4), plasma, treatment ratio versus control","day 28, first listing in Table 3",0.94*
same,"Lysophosphatidylcholine (C20:4), plasma, treatment ratio versus control","day 28, second listing in Table 3",0.5*

# — patent US20140342379A1, “Means and Methods for Assessing Gonadal Toxicity” (BASF SE, priority 2011, published 2014)
